Data on 2 compounds can be found in patent US11357719B2, “Method for obtaining a diglycoside-enriched Armeria maritima extract, and use thereof in cosmetics” (BIOTECHMARINE, priority 2016, dated 2022).

Where “and” joins values, the source holds several entries; their conditions need not be identical. Identical values can stand only once.

One data set deals with purified collagenase. Nature of the data set: Anti-collagenase activity, EnzCheck gelatinase/collagenase Assay Kit (cell-free, fluorimetry). Conditions: for Fluorescence: 2 h incubation at room temperature, blank subtracted; for Inhibition: relative to control group. The class given is biochemical, Clostridium Histolyticum. The procedure:
A purified collagenase is used and the degradation of its pro-fluorescent substrate is monitored by fluorimetry.
The anti-collagenase activity is evaluated using a commercially available kit (EnzCheck™ gelatinase/collagenase Assay Kit, Molecular Probes, reference E-12055).
This is a test based on a cell-free biochemical evaluation using a purified collagenase from a […] (Clostridium Histolyticum) and a purified gelatin from porcine skin, purified type I collagen from bovine skin or purified type IV collagen from human placenta. […] The increase in the fluorescence is proportional to the MMP activity. A decrease in this fluorescence is expected in the presence of anti-MMP active agents. The test is validated using a reference anti-MMP inhibitor provided in the kit, 1,10-phenanthroline, tested at 0.01% and 0.001%.
The products are placed on a 96-well plate in the following manner:
The products are left to incubate for two hours at room temperature in darkness, then the fluorescence is determined (Excitation 495 nm; Emission: 515 nm). Each test is repeated three times. For each sample, the values are subtracted from the blank test. The percentage inhibition corresponds to the ratio of the mean of the collagenase activity obtained for each extract to the mean of the collagenase activity of the control group.

A further data set deals with normal human fibroblasts. Nature of the data set: Phototoxicity evaluation based on OECD test no. 432 (in vitro 3T3 NRU phototoxicity test), MTT viability. It is filed as cell-based. The protocol: This evaluation is carried out based on the experimental conditions of test no. 432, entitled “in vitro 3T3 NRU phototoxicity test” from the OECD guidelines for testing chemicals, regarding conditions related to culture kinetics and to the acceptable dosage limit for Chlopromazine (CPZ). This guideline describes a method for evaluating photo-cytotoxicity by the relative reduction in the viability of the cells exposed to the chemical product in the presence or absence of light.
A pool of normal human fibroblasts of Caucasian type is used and amplified for five days in a 75 cm^2 flask in specific culture medium containing 10% FBS*. The cells are then seeded in culture wells of a 96-well plate (4 wells/condition), at 10 000 cells/well, in 200 μl of specific culture medium containing 10% FBS (Fetal Bovine Serum). 24 h after seeding, the cells are treated with the products for the test, prepared in EBSS (Earle's balance salt Solution) for one hour. At the end of this incubation, the cells are exposed (+irr) or not exposed (−irr) to a dose of 1 J/cm^2 of UVA, in the presence of the products being tested. At the end of this exposure, the cell layers are rinsed then brought back into contact with specific culture medium containing 2% of FBS. 24 h after this change, the cell viability is evaluated using the MTT method (colorimetric assay, visualized at 540 nm). The results are expressed as percentage viability relative to the control. The following parameters are deduced therefrom:
EC50: Concentration of active agent inducing 50% toxicity (−irr) or phototoxicity (+irr)
PIF (photo-irradiation factor): EC50(−irr)/EC50(+irr)
2<PIF<5: Probable phototoxicity

The term Inhibition denotes the relative decrease from the control value, in per cent. Read a high Inhibition as strong suppression. As to `c1cnc2c(c1)ccc1cccnc12` [1,10-phenanthroline], in the data set with purified collagenase (product at 0.001%), the Fluorescence was 37.13 AU and 24.41 AU; the Inhibition is 66% and 76%. Besides, in the data set with purified collagenase (product at 0.01%), the Fluorescence was 0.91 AU and 1.07 AU; the Inhibition is given as 99%.
For `CN(C)CCCN1c2ccccc2Sc2ccc(Cl)cc21` [CPZ, Chlopromazine], the “PIF (photo-irradiation factor): EC50(−irr)/EC50(+irr)” value with normal human fibroblasts (PIF<2 no phototoxicity, 2<PIF<5 probable phototoxicity, PIF>5 phototoxicity) is given as 89.2. In addition, the “EC50(+irr): concentration of active agent inducing 50% phototoxicity” value in the data set with normal human fibroblasts (exposed to 1 J/cm^2 of UVA, MTT viability 24 h after) was 0.25. Besides, in the data set on normal human fibroblasts (not exposed to UVA, MTT viability 24 h after), the “EC50(−irr): concentration of active agent inducing 50% toxicity” value came to 22.30.
